Consider 2 molecules from patent publication US20250326792A1, “A FORMULATION FOR TREATMENT OF PIGMENTARY DISORDERS” (priority 2022, published 2025).

Test [1] relates to Tyrosinase. Description: Tyrosinase activity assay (L-DOPA) in B16F10 cells. It is filed as cell-based. Particulars: for increase in Tyrosinase activity when compared to control: B16F10 cells, positive control. The method, then: (§1) Culture and maintenance of cell lines: B16F10 cells were cultured in RPMI containing 10% fetal bovine serum, 100 units per millilitre (U/mL) penicillin, 0.1 mg/mL streptomycin, and 0.25 microgram per millilitre (μg/mL) amphotericin B at 37 degrees Celsius in a humidified 95% air/5% CO2 incubator. Drug treatment was done 24 hours after seeding. Cells were harvested 48 hours later and melanin content and tyrosinase activity determined in triplicate. NHEM cells were cultured in DMEM containing 10% fetal bovine serum, 100 units per milliliter (U/mL) penicillin, 0.1 mg/mL streptomycin, and 0.25 microgram per millilitre (μg/mL) amphotericin B at 37 degrees Celsius in a humidified 95% air/5% CO2 incubator. Drug treatment was done 24 hours after seeding. Cells were harvested 48 hours later and melanin content and tyrosinase activity determined in triplicate.
(§2) IS103 was dissolved in water for injection or DMSO to prepare stock solution of about 50 mg/ml. The stock solution was used for preparation of subsequent dilutions in solvent to achieve working dilutions for treatment ranging 0.1 μg/ml to 1000 μg/ml.
(§3) Tyrosinase activity was determined using L-DOPA as a substrate. Briefly, B16F10 and NHEM cells were seeded in a 6-well plate (2×10^4 cells/well) and incubated for overnight. The cells were then treated with or without the test compounds for 46 hours and were washed twice with ice cold PBS and extracted by sonication in 100 μl of 0.1M Tris-HCl buffer (pH 7.2) containing 1% Nonidet P-40, 0.01% SDS, 100 μM phenyl methyl sulfonyl fluoride, and 1 μg/ml aprotinin and then centrifuged at 10,000 g for about 10 minutes at 4° C. The supernatants collected were used for enzyme assay and its protein content was estimated by method of Bradford using BSA as standard. Samples of cell extract supernatant were incubated in duplicate for 1 hour at 37° C. in 1 ml of 0.1M sodium phosphate buffer (pH 7.4) containing 0.1% L-DOPA. The absorbance was then monitored at 450 nm and compared with purified mushroom tyrosinase (Sigma). The standard curve was prepared limiting linearity within the range of experimental value.

The next test relates to NHEM cells. As to the kind of experiment: Melanin content assay in NHEM cells. It is filed as cell-based, Human. Particulars: NHEM CELLS. The protocol: as §1, §2
(§4) Cells were seeded in a 6-well plate (2×10^4 cells/well) and incubated overnight to allow the cells to adhere. After treating with various test samples for 4 or 5 days, cells were washed with phosphate-buffered saline (PBS), trypsinized, counted, and then lysed in 1 N NaOH at 100° C. for about 1 hour. The melanin content in each sample was calculated by comparison of absorbance at 400 nm of unknown samples with a standard curve obtained using synthetic melanin. IS103 enhances melanin synthesis in a dose dependent manner without significant toxicity. B16F10 and NHEM cells were treated with different concentrations of IS103 ranging from 0.1 to 1000 μg/ml and analysed melanin contents in cells. It was observed that IS103 was able to enhance pigmentation of B16F10 and NHEM cells in a dose-dependent manner (Table 18 and FIGS. 4 and 5). […] To assess the toxicity of the IS103 peptide, cell viability was analyzed by MTT assay.

The subject of test [2] is Tyrosinase. As to the kind of experiment: Tyrosinase activity assay (L-DOPA) in NHEM cells. The test is classed as cell-based, Human. Particulars: for increase in Tyrosinase activity when compared to control: NHEM cells, positive control. The protocol:
as §1, §2, §3

A further test concerns B16F10 cells. As to the kind of experiment: Melanin content assay in B16F10 cells. It is filed as cell-based. Particulars: B16F10 CELLS; 100 μM. The method, then:
as §1, §2
as §4, with “IS103 enhances melanin synthesis in a dose dependent manner without significant toxicity.” left out, “cells.” for “cells. It was observed that IS103 was able to enhance pigmentation of B16F10 and NHEM cells in a dose-dependent manner (Table 18 and FIGS. 4 and 5).”

The mark [3] stands for this setting: TYROSINASE ACTIVITY table, B16F10 CELLS, 100 μM.
[4] abbreviates: TYROSINASE ACTIVITY table, NHEM CELLS, 100 μM.

Turning to “α-Melanocyte Stimulating Hormone [α-MSH, reference compound]”, the “increase in Tyrosinase activity when compared to control” value (“increase in Tyrosinase activity when” below) was determined as 57.33% in the test on Tyrosinase [1] (100 nM) and 56.33% in the test with Tyrosinase [2] (100 nM). Also, the “% increase in tyrosinase activity compared to control” value (“% increase in tyrosinase activity” below) in the test on Tyrosinase [1] (TYROSINASE ACTIVITY table, B16F10 CELLS, 100 nM) came to 57.33%; in the test with Tyrosinase [2] (TYROSINASE ACTIVITY table, NHEM CELLS, 100 nM) it was 56.33%. In addition, the “% increase in melanin content compared to control” value (“% increase in melanin content” for short) in the test with NHEM cells (100 nM) is reported as 190%.

Turning to `CC(C)Cn1c(=O)n(C)c(=O)c2[nH]cnc21` [IBMX, 3-isobutyl-1-methylxanthine, reference compound], the “increase in Tyrosinase activity when” value with Tyrosinase [1] (100 μM) was 59%. Moreover, in the test with Tyrosinase [1] (setting [3]), the “% increase in tyrosinase activity” value came out at 59% and the “Change in tyrosinase activity” value is 74.0 ± 5.10. Also, in the test with NHEM cells (100 μM), the “% increase in melanin content” value turned out to be 160% and the “Fold change in melanin content” value worked out at 2.6 ± 0.20. Moreover, in the test on B16F10 cells, the “% increase in melanin content” value is 180% and the “Fold change in melanin content” value is on record as 2.8 ± 0.20. In addition, the “increase in Tyrosinase activity when” value in the test on Tyrosinase [2] (100 μM) is listed as 56%. Also, in the test on Tyrosinase [2] (setting [4]), the “% increase in tyrosinase activity” value was 56% and the Tyrosinase activity is given as 70.3 ± 4.20.
